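Five compound concentrations were applied to cells in 96-well plates for 48 hours; endpoints were derived by simple linear interpolation of the resulting dose-response curve. TGI: concentration producing complete growth inhibition.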
Columns and labels:
Assay in all cases: growth of human tumour cells (NCI), 48 h
SNB-19 CNS = test system: SNB-19 CNS
HOP-92 NSCLC = test system: HOP-92 NSCLC
A498 renal = test system: A498 renal
RPMI-8226 leukemia = test system: RPMI-8226 leukemia
HCT-116 colon = test system: HCT-116 colon
BT-549 breast = test system: BT-549 breast
MALME-3M melanoma = test system: MALME-3M melanoma
NCI-H226 lung = test system: NCI-H226 lung
SF-539 CNS = test system: SF-539 CNS
EKVX NSCLC = test system: EKVX NSCLC
OVCAR-8 ovarian = test system: OVCAR-8 ovarian
HL-60(TB) leukemia = test system: HL-60(TB) leukemia
COLO 205 colon = test system: COLO 205 colon
MOLT-4 leukemia = test system: MOLT-4 leukemia
M14 melanoma = test system: M14 melanoma
DU-145 prostate = test system: DU-145 prostate
T-47D breast = test system: T-47D breast
UACC-62 melanoma = test system: UACC-62 melanoma
SK-MEL-5 melanoma = test system: SK-MEL-5 melanoma
A549 NSCLC = test system: A549 NSCLC
SW-620 colon = test system: SW-620 colon
OVCAR-3 ovarian = test system: OVCAR-3 ovarian
SK-MEL-28 melanoma = test system: SK-MEL-28 melanoma
NCI-H460 lung = test system: NCI-H460 lung
SN12C renal = test system: SN12C renal
NCI-H522 lung = test system: NCI-H522 lung
UO-31 renal = test system: UO-31 renal
ACHN renal = test system: ACHN renal
SF-268 CNS = test system: SF-268 CNS
IGROV1 ovarian = test system: IGROV1 ovarian
PC-3 prostate = test system: PC-3 prostate
K-562 leukemia = test system: K-562 leukemia
KM12 colon = test system: KM12 colon
SK-MEL-2 melanoma = test system: SK-MEL-2 melanoma
HCC-2998 colon = test system: HCC-2998 colon
OVCAR-5 ovarian = test system: OVCAR-5 ovarian
HOP-62 NSCLC = test system: HOP-62 NSCLC
MDA-N = test system: MDA-N
MDA-MB-435 = test system: MDA-MB-435
CCRF-CEM leukemia = test system: CCRF-CEM leukemia
SNB-75 CNS = test system: SNB-75 CNS
RXF 393 renal = test system: RXF 393 renal
UACC-257 melanoma = test system: UACC-257 melanoma
SF-295 CNS = test system: SF-295 CNS
SK-OV-3 ovarian = test system: SK-OV-3 ovarian
OVCAR-4 ovarian = test system: OVCAR-4 ovarian
SR leukemia = test system: SR leukemia
NCI/ADR-RES ovarian = test system: NCI/ADR-RES ovarian
TK-10 renal = test system: TK-10 renal
786-0 renal = test system: 786-0 renal
HS 578T breast = test system: HS 578T breast
LOX IMVI melanoma = test system: LOX IMVI melanoma
U251 CNS = test system: U251 CNS
HCT-15 colon = test system: HCT-15 colon
HT29 colon = test system: HT29 colon

Measured: TGI

N#Cc1c(N2CCCC2)ncn(Cc2ccccc2)c1=O
> 100 µM: SNB-19 CNS | HOP-92 NSCLC | A498 renal | RPMI-8226 leukemia | HCT-116 colon | BT-549 breast | MALME-3M melanoma | NCI-H226 lung | SF-539 CNS | EKVX NSCLC | OVCAR-8 ovarian | HL-60(TB) leukemia | COLO 205 colon | MOLT-4 leukemia | M14 melanoma | DU-145 prostate | T-47D breast | UACC-62 melanoma | SK-MEL-5 melanoma | A549 NSCLC | SW-620 colon | OVCAR-3 ovarian | SK-MEL-28 melanoma | NCI-H460 lung | SN12C renal | NCI-H522 lung | UO-31 renal | ACHN renal | SF-268 CNS | IGROV1 ovarian | PC-3 prostate | K-562 leukemia | KM12 colon | SK-MEL-2 melanoma | HCC-2998 colon | OVCAR-5 ovarian | HOP-62 NSCLC | MDA-N | MDA-MB-435 | CCRF-CEM leukemia | SNB-75 CNS | RXF 393 renal | UACC-257 melanoma | SF-295 CNS | SK-OV-3 ovarian | OVCAR-4 ovarian | SR leukemia | NCI/ADR-RES ovarian | TK-10 renal | 786-0 renal | HS 578T breast | LOX IMVI melanoma | U251 CNS | HCT-15 colon | HT29 colon

Reference: PubChem BioAssay (NCI)
